Assay results taken from patent US8815946B2, “Inhibition of proliferation and fibrotic response of activated corneal stromal cells” (University of Pittsburgh—of the Commonwealth System of …, priority 2008, dated 2014).

Experiments:
α-SMA [1] = test: Immunocytochemical analysis of α-SMA expression, human corneal stromal cells; assay type: cell-based; details: 10 mM EP
Description: (§1) FIG. 3. Immunocytochemical analysis of α-SMA expression. Human corneal stromal cells in P2 growing in DMEM/F12 with 10% FBS were subcultured into desired number of 35 mm tissue culture dishes. After 24 hrs of incubation, the media were replaced with DMEM/F12 medium containing 1% FBS and TGF-β1 with or without (control) 10 mM EP and incubated for two and four days (media were changed every 24 hours). The cells were fixed and double stained for α-SMA (green) and phalloidin (red) using an indirect fluorescence technique as described herein.
(§2) For immunocytochemical analyses, the cells were cultured on glass cover slips or tissue culture dishes. Cells were rinsed with phosphate-buffered saline (PBS), fixed with paraformaldehyde-lysine-periodate and permeabilized with PIPES buffer containing 0.2% Triton X-100, as described previously (Guerriero et al., Invest. Opthalmol. Vis. Sci. 2007; 48: 627-635). Fixed and permeabilized cells were reacted with 10% heat-inactivated goat serum in PBS, pH 7.5, for 45 minutes to block the nonspecific binding of the secondary antibody, rinsed with PBS, and then treated with the primary and secondary antibodies as described previously (Guerriero et al. Invest. Opthalmol. Vis. Sci. 2007; 48: 627-635). Primary antibodies included monoclonal rat anti-α smooth muscle actin (SMA) and anti-fibronectin. […]

[2] = system: extracellular matrix genes; test: Microarray analysis (Affymetrix U133 Plus 2.0) of corneal stromal cells; assay type: cell-based, human
Description: Total RNA was processed and analyzed using the appropriate Affymetrix products (Affymetrix Inc., Santa Clara, Calif.). Eukaryote Poly A RNA internal standards (GeneChip® Poly-A RNA Control Kit from Affymetrix Inc.) were added to the samples, and the mRNA component of the total RNA was reverse-transcribed in the presence of a T7-(dT)24 primer (GeneChip® One-Cycle cDNA Synthesis Kit from Affymetrix Inc.). The resulting cDNA was extracted (GeneChip® Sample Cleanup Module from Affymetrix Inc.) and transcribed in vitro in the presence of biotin-labeled ribonucleotides (Labeling Kit from Affymetrix Inc.). The biotinylated RNA was extracted and fragmented (GeneChip® Sample Cleanup Module from Affymetrix Inc.: 20 μg material fragmented for 35 minutes at 94° C.). Each sample was hybridized overnight to a U133 PLUS™ 2.0 GeneChip (GeneChip® Human Genome U133 Plus 2.0 Array from Affymetrix Inc.). The chips were then washed, developed and scanned in Agilent CHIPSCANNER™ (Affymetrix Inc., Santa Clara, Calif.). Raw data was processed and analyzed using Affymetrix GENECHIP™ Operating System (GCOS) v 1.0.
The U133 PLUS™ 2.0 GeneChips contain 54,675 panels, each targeting a specific transcript sequence. Approximately 20,600 gene products identified by Entrez Gene numbers are redundantly targeted by 46,000 panels: the remaining panels target products which are less well characterized. Affymetrix GCOS™1.0 software was used to assess the presence or absence of the target sequence of each panel. Expression levels were normalized so that the mean for each sample was equal to the global mean for all samples. Panels, which were absent for every sample in either experiment, were omitted from further consideration. This left 23284 panels encoding 12258 unique, characterized (Entrez Gene) genes.
In earlier work, the changes in the gene expression upon activation of keratocyte to myofibroblast phenotype induced by TGF-β1 was studied. In the present analysis, as a cross check the present, consistent TGFβ-evoked (>2-fold) increases were checked with the previous data. Transition from keratocytes to fibroblasts increased 520 panels, and decreased 700 panels. The 599 unique, characterized genes so altered were compared with a previously acquired database of 873 genes known to be altered by phenotypic transition either from keratocyte to fibroblast or from fibroblast to myofibroblast. The number of genes concordant between these sets was 170, 4.9-fold greater than random chance (p=1.65×10^−130, chi-squared test). Extracellular matrix components: 244 panels (143 unique genes) with the Gene Ontology Cellular Component code 5578 (extracellular matrix) were selected. Of these, 28 were TGFβ-1 modulated in the present experiment and 49 were Consistent 5-fold increases in myofibroblasts.
In Table 1 are ECM genes altered by phenotype change, which are also affected by ethyl pyruvate. Genes in bold were altered during phenotype shifts only in previous experiments, genes in italics were altered by phenotype shift only in the present experiment, and genes in normal font were altered by phenotype shifts in both present and prior experiments.

α-SMA [3] = test: Immunocytochemical analysis of α-SMA expression, rabbit corneal stromal cells; assay type: cell-based; details: 10 mM EP
Description: as §1, with “4.” for “3.”, “Rabbit” for “Human”, “into” for “into desired number of”, “for” for “for two and”, “and” for “and double”, “(green)” for “(green) and phalloidin (red)”
as §2

[4] = cited from earlier work
[5] = three consistent (2-fold) changes of four potential
[6] = two consistent (2-fold) changes of four potential

SMILES: CCOC(=O)C(C)=O [ethyl pyruvate]
- TGF-β1 induced expression of α-SMA (immunocytochemical) (α-SMA [1]): downregulated
- latent transforming growth factor beta binding protein 1 expression change ([2]; four consistent (2-fold) changes of four potential): (−4.1)
- consistent increase of RGC32, HMOX1, GDF15 and TRIB3 expression ([2]; myofibroblasts, only four characterized genes): 5 fold
- Tissue factor pathway inhibitor 2 expression change [2, 5]: (−4.8)
- collagen, type III, alpha 1 expression change [2, 5]: alpha 1 (−4.9)
- collagen, type X, alpha1 expression change [2, 5]: alpha1 (−8.1)
- laminin, beta 1 expression change [2, 5]: (−3.8)
- matrix metallopeptidase 10 (stromelysin 2) expression change [2, 5]: (stromelysin 2) (3.8)
- periostin, osteoblast specific factor expression change [2, 5]: specific factor (−9.7)
- secreted phosphoprotein 1 (osteopontin) expression change [2, 5]: (osteopontin) (2.7)
- Collagen, type VIII, alpha 1 expression change [2, 6]: alpha 1 (−4.0)
- EGF-containing fibulin-like extracellular matrix protein1 expression change [2, 6]: (−2.6)
- SPARC-like 1 expression change [2, 6]: SPARC-like 1 (−3.3)
- chondroitin sulfate proteoglycan 2 (versican) expression change [2, 6]: (versican) (−5.9)
- collagen triple helix repeat containing 1 expression change [2, 6]: containing 1 (−4.3)
- collagen, type I, alpha 2 expression change [2, 6]: alpha 2 (−2.7)
- collagen, type V, alpha 1 expression change [2, 6]: alpha 1 (−6.2)
- collagen, type VIII, alpha 2 expression change [2, 6]: alpha 2 (−3.8)
- collagen, type XII, alpha1 expression change [2, 6]: alpha1 (−2.8)
- fibronectin 1 expression change [2, 6]: fibronectin 1 (−2.3)
- heparan sulfate proteoglycan 2 (perlecan) expression change [2, 6]: (perlecan) (−3.0)
- laminin, alpha 4 expression change [2, 6]: (−2.4)
- lysyl oxidase expression change [2, 6]: lysyl oxidase (−4.0)
- matrix metallopeptidase 1 (interstitial collagenase) expression change [2, 6]: collagenase) (5.9)
- secreted protein, acidic, cysteine-rich (osteonectin) expression change [2, 6]: (osteonectin) (−8.4)
- tenascin C (hexabrachion) expression change [2, 6]: (hexabrachion) (−7.4)
- collagen, type I, alpha 1 expression change ([2]; two consistent (2-fold) ethyl pyruvate changes of four potential (2 phenotypes, 2 experiments)): alpha 1 (−2.9)
- TGF-β1 induced expression of α-SMA (immunocytochemical) (α-SMA [3]): downregulated
- time to diffuse into the aqueous humor ([4]; applied on the surface of the eye): ≤ 15 min
- entry into the anterior chamber ([4]; diffuses through conjunctival tissue or into corneal stroma): within minutes
- elimination half-life ([4]; in vivo): approximately 90 minutes
